Measurements from US10292989B2, “General anesthetics that are not neurotoxic” (University of Virginia Patent Foundation, priority 2014, dated 2019).

Tests used:
[1] = tested on: young adolescent rats (P20-29); assay: Loss of righting reflex (LORR) in young adolescent rats, i.p.; type: in vivo; settings: Rattus norvegicus, ip; rats of both sexes P20-29, i.p., 15% β-cyclodextrin; read-out: estimated ED50 for loss of righting reflex (LORR)
Method: (§2) For in vivo experiments, steroids were freshly dissolved in 15% β-cyclodextrin solution and injected intraperitoneally (i.p.) at escalating doses from 5 to 75 mg/kg.

[2] = tested on: adult female C57Bl/6 mice; assay: Loss of righting reflex (LORR) in adult female C57Bl/6 mice, i.p.; type: in vivo, mouse
Method: as §2

adult naïve rats = assay: Thermal paw withdrawal latency after i.t. injection in naive rats; type: in vivo, rat
Method: a. […] We began by studying the role of postsynaptic T-channels in DH neurons using current-clamp recording from unidentified lamina I-II DH neurons in spinal cord slices in vitro. To exclude synaptic currents, our external solution contained 20 μM picrotoxin, 50 μM d-APV and 5 μM NBQX to block inhibitory and excitatory synaptic currents, respectively. We first injected −300 pA of current via the recording electrode for 500 ms, which hyperpolarized the resting membrane potential (RMP) and allowed T-channels to recover from inactivation. This protocol served to assess input resistance (Rin) and to evoke rebound action potential (AP) firing. The top line in FIG. 3A depicts the protocol of current injection while bottom traces represent membrane responses. […] To investigate the possible role of T-channels in spinal nociceptive transmission in vivo, we used intrathecal (i.t.) injections and measured thermal nociceptive responses to noxious heat in adult naïve rats using methods as we described elsewhere (Messinger et al., 2009; Obradovic et al., 2014, PLoS ONE 9(4): e91467. doi:10.1371/journal.pone.0091467). For i.t. injections, rats were briefly anesthetized with 1.5-2% isoflurane and thermal paw withdrawal latencies (PWLs) were measured starting from 30 minutes following injection. […]

rats [3] = assay: Sensorimotor tests (inclined plane, platform, ledge); type: in vivo, rat; settings: 16 μg i.t., 60 min after injection
Method: b. 3β-OH induces potent dose-dependent spinally-mediated analgesia in naïve rats. To assess its potential for spinally mediated analgesia, we injected 4 escalating doses of 3β-OH i.t. (from 0.003 to 16 μg) dissolved in 50 μL of vehicle (15% β-cyclodextrin) and measured thermal PWLs at 30 minutes intervals up to 150 minutes after injections. […] The analgesic effect was long-lasting, with higher doses of 3β-OH increasing PWLs by about 25-30% at 150 minutes post-injections. Note that PWLs remained stable in both paws during injections of vehicle (red lines). We also considered the possibility that i.t. injected 3β-OH may non-specifically affect performance by decreasing motor strength and/or coordination. […] Rats (n=6), were tested using an inclined plane, platform, and ledge before injection of the highest dose of 3β-OH (16 μg i.t.) and at 60 min after injection, corresponding to the time of maximal analgesia (FIG. 4).

[4] = tested on: rats with hind paw incision; assay: Thermal hyperalgesia after plantar skin and deep tissue incision (PWL); type: in vivo, rat
Method: In order to study the potential role of neuroactive steroids in perioperative analgesia we used a model of a plantar incision of skin and deep tissue in the hind paw of rats. Starting 2 hours after operation, thermal hyperalgesia to nociceptive heat stimuli was assessed measuring thermal PWLs. As depicted in FIG. 5, thermal hyperalgesia is profound up to two days after surgery as evidenced by attenuated PWLs in incised (right) paws by about 70% when compared to unincised (left) paws in the same animals. This gradually resolved and returned to near preoperative baseline values within 7 days. Note that thermal PWLs in unincised paws remained stable during this period.
Next, we examined the ability of 3β-OH to influence thermal hyperalgesia in this rat model of perioperative pain. […] We applied the same dose of steroid or vehicle i.t. at 2, 24 and 48 hours after surgery and measured thermal PWLs in both paws (unincised paws, top panel of FIG. 6; incised paws, bottom panel of FIG. 6) at 30 minute intervals from 30-180 minutes after surgery in order to assess the time course and possible tolerance to any analgesic and antihyperalgesic effect of 3β-OH. FIG. 6 summarizes average results from multiple animals (6-13 per group). It is noteworthy that 3β-OH had little effect on thermal PWLs when compared to vehicle in incised paws when applied 2 hours after incision (bottom panel, filled round symbols) while in contralateral unincised paws (top panel, filled round symbols) the same dose induced analgesia at the 30 and 60 minute time points as evidenced by increased PWLs when compared to vehicle injections (top panel, filled circles). Furthermore, subsequent i.t. injections of 3β-OH at 24 hours (open squares) and 48 hours (filled triangles) induced long-lasting progressive anti-hyperalgesia in incised paws (bottom panel) with return of thermal PWLs to near baseline pre-incisional values measured at 180 minutes after injection (48 hours group). For example, at 48 hours post-surgery the average PWL of incised paws at 180 minutes post vehicle injection was about 4 seconds, while at 180 minutes post steroid injection PWLs were prolonged to about 9 seconds and approached pre-incisional values. In contrast, in unincised paws the same injections of 3β-OH induced analgesia of similar magnitude to the analgesia produced when steroid was injected 2 hours post-surgery, measuring in average 14-15 seconds on thermal PWLs (top panel).
We next tested the idea that locally applied 3β-OH may abolish thermal hyperalgesia after paw incision. For these experiments we first obtained baseline (pre-incision) thermal PWLs (about 10 seconds) and repeated measurements 2 hours after surgery (about 2.5 seconds). We then injected (arrow on FIG. 7A) directly into the incised paw either 16 μg or 48 μg of 3β-OH in 100 μl of saline that was pH adjusted to 7.4 (n=6 rats in each group). We recorded PWLs for three consecutive days after injections.
Note that PWLs in noninjected (unincised) paws (black squares and red diamonds) remained stable indicating lack of any systemic effect. […] For these experiments depicted on FIG. 7B, we first obtained pre-incision PWLs, and then injected 16 μg of 3β-OH repeatedly at the following time points: 2 hours, day 1, 2, 3 and 5 after post-surgery (n=6 rats). As shown on FIG. 7B (red symbols) repeated injections of steroid induced progressive anti-hyperalgesia from day 1 to day 5 post surgery with increase in PWLs from 50-90% when compared to PWLs in incised paws injected with vehicle (*, p<0.05; **, p<0.01; ***, p<0.001).

[5] = target: T1, recombinant human Cav2.3 channels (Homo sapiens, UniProt Q15878); assay: Recombinant human Cav2.3 currents in HEK 293 cells; type: cell-based; settings: HEK293, read-out: inhibition of recombinant Cav2.3 currents (of control pre-drug values)
T1 construct: expressed in transfected cells
T1 sequence (Q15878 whole entry): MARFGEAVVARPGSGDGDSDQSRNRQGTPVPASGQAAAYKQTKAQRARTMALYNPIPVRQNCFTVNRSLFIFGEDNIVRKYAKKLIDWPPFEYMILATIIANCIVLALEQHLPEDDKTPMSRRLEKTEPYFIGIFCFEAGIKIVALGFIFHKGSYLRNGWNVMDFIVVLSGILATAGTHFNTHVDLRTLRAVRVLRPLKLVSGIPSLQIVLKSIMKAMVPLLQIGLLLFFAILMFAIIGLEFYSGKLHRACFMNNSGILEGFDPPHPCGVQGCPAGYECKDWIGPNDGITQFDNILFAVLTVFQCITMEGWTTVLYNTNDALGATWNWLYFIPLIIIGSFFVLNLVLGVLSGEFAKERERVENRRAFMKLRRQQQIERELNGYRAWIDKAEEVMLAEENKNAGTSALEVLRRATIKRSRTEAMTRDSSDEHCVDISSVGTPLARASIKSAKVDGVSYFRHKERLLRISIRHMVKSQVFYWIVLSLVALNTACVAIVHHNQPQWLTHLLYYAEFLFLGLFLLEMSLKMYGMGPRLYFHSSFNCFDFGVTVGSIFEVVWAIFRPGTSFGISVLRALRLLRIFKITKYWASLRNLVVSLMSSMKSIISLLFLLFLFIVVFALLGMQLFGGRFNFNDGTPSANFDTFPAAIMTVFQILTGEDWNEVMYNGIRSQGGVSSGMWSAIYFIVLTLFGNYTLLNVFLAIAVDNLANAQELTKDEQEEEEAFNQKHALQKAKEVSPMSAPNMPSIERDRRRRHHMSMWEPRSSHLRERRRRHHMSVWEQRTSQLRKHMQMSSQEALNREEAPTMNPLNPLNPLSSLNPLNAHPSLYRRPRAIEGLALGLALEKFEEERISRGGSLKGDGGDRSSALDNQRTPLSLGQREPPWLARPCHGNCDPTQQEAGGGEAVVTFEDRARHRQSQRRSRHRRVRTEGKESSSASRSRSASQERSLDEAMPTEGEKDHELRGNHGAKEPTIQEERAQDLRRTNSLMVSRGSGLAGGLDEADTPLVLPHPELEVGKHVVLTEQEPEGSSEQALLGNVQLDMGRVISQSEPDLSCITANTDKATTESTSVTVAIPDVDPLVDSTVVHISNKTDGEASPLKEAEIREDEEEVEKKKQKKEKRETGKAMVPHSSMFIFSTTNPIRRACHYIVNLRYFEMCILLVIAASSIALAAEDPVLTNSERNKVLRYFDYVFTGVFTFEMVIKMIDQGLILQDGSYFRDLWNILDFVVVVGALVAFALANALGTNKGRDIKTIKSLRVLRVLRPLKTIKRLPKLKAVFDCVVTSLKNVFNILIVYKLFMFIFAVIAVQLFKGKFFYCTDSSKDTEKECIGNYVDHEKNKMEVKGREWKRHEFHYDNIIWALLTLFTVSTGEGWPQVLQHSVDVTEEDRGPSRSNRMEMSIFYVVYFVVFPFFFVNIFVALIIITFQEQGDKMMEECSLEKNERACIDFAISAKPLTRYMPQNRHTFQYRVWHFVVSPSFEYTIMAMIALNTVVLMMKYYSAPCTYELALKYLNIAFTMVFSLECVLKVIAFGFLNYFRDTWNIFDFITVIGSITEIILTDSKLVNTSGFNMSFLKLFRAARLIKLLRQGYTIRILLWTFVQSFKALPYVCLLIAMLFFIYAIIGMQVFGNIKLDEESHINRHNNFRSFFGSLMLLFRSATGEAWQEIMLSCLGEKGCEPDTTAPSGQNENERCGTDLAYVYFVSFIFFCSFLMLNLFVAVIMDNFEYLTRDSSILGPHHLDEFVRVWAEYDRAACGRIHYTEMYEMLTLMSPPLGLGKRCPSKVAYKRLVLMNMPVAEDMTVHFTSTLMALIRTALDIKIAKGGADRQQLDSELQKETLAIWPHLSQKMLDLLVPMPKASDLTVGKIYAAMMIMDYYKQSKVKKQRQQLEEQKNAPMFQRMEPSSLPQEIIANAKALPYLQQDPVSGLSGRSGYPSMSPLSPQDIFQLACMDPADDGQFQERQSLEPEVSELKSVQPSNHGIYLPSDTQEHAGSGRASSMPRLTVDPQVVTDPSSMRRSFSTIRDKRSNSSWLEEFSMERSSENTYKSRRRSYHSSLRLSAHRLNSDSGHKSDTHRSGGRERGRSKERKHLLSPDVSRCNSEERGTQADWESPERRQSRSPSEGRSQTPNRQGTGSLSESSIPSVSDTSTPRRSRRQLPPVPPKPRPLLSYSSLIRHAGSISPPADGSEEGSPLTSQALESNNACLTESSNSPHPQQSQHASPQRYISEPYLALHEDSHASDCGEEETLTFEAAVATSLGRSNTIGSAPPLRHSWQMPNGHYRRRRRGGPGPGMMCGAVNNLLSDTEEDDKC
T1 sequence (P54284 whole entry partner): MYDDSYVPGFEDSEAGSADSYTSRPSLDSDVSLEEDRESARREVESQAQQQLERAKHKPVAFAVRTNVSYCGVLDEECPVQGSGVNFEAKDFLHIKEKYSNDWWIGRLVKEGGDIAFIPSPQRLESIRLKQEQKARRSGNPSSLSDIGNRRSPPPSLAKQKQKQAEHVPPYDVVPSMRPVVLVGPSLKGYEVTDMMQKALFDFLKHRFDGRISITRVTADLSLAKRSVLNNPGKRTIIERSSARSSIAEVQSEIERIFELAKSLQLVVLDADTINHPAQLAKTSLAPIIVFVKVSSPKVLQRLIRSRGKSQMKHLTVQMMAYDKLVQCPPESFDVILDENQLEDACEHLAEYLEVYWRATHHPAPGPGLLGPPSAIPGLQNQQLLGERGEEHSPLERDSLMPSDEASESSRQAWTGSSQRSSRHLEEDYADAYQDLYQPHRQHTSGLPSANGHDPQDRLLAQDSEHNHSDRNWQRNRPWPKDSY
Excerpt: Here, we examined the sensitivity of recombinant human Cav2.3 channels stably expressed in human embryonic kidney (HEK) 293 cells to 3β-OH.

adult monkeys = assay: Acute anesthetic doses in adult monkeys, cardiac arrhythmias; type: in vivo, monkey; settings: acute applications of anesthetic doses, preliminary study, data not shown
Excerpt: Although no preclinical data are currently available on the long-term use of 3β-OH, ECN, and related neuroactive steroids, previous evaluation of the safety of non-steroidal blockers of T-channels such as TTA compounds in dogs has disclosed no cardiovascular side effects.

[6] = Lethality (LD50) in PND7 rat pups; settings: rat, in vivo, ip
rat pups (PND7) [7] = assay: Lethality (LD50) in PND7 rat pups; settings: LD50 vs ED50 for LORR
rats [8] = assay: 8-arm radial arm maze (RAM) after exposure at PND7; type: in vivo, rat
Method: (§1) To assess cognitive abilities of our rats we tested their spatial working memory using the 8-arm radial arm maze test (RAM). We began by comparing the overall appearance and daily weight of rats in each group (saline, cyclodextrin, 3β-OH at 10 mg/kg and ketamine at 40 mg/kg) since nutritional status and general state of health are critically important for cognitive development. Based on their general appearance, rats in different groups could not be distinguished from each other. Similarly, there was no difference in daily weight gain among the groups (FIG. 13A). The time points when the animals were treated (PND 7), food restricted (from PND 45), tested on the RAM (from PND 53) and permitted to eat ad libitum (from PND 70) are indicated on the graph. Food restriction, a necessary component of the RAM learning protocol, was limited so that no rat lost more than 10%-15% of its body weight.
To further scrutinize how the acquisition rate of 3β-OH-treated rats compares to ketamine and vehicle groups, we plotted the cumulative percent scores for ketamine-treated animals relative to recorded cumulative percent scores for other groups, using a percent-percent plot (p-p plot) (FIG. 14). […] The learning behavior of 3β-OH-treated rats is similar to that of sham controls resulting in a large gap (shaded area) in learning ability between ketamine-treated (lower blue dotted line) and 3β-OH-treated animals (upper red dotted line). A slight slowing in the acquisition rate observed with 3β-OH-treated rats when compared to vehicle controls (saline—SAL and cyclodextrin—CYCL) during the mid-portion of training (as discussed in FIG. 13C) is highlighted with rectangles.

[9] = Daily weight gain after exposure at PND7; type: in vivo, rat; settings: 3β-OH at 10 mg/kg, ketamine at 40 mg/kg, treated PND 7
Method: as §1

[10] = target: T2, T-channels in rat DRG neurons (Rattus norvegicus, UniProt Q9EQ60); settings: cited from earlier work
T2 construct: endogenous in cells; host or cells: acutely dissociated rat DRG neurons
T2 sequence (Q9EQ60 whole entry): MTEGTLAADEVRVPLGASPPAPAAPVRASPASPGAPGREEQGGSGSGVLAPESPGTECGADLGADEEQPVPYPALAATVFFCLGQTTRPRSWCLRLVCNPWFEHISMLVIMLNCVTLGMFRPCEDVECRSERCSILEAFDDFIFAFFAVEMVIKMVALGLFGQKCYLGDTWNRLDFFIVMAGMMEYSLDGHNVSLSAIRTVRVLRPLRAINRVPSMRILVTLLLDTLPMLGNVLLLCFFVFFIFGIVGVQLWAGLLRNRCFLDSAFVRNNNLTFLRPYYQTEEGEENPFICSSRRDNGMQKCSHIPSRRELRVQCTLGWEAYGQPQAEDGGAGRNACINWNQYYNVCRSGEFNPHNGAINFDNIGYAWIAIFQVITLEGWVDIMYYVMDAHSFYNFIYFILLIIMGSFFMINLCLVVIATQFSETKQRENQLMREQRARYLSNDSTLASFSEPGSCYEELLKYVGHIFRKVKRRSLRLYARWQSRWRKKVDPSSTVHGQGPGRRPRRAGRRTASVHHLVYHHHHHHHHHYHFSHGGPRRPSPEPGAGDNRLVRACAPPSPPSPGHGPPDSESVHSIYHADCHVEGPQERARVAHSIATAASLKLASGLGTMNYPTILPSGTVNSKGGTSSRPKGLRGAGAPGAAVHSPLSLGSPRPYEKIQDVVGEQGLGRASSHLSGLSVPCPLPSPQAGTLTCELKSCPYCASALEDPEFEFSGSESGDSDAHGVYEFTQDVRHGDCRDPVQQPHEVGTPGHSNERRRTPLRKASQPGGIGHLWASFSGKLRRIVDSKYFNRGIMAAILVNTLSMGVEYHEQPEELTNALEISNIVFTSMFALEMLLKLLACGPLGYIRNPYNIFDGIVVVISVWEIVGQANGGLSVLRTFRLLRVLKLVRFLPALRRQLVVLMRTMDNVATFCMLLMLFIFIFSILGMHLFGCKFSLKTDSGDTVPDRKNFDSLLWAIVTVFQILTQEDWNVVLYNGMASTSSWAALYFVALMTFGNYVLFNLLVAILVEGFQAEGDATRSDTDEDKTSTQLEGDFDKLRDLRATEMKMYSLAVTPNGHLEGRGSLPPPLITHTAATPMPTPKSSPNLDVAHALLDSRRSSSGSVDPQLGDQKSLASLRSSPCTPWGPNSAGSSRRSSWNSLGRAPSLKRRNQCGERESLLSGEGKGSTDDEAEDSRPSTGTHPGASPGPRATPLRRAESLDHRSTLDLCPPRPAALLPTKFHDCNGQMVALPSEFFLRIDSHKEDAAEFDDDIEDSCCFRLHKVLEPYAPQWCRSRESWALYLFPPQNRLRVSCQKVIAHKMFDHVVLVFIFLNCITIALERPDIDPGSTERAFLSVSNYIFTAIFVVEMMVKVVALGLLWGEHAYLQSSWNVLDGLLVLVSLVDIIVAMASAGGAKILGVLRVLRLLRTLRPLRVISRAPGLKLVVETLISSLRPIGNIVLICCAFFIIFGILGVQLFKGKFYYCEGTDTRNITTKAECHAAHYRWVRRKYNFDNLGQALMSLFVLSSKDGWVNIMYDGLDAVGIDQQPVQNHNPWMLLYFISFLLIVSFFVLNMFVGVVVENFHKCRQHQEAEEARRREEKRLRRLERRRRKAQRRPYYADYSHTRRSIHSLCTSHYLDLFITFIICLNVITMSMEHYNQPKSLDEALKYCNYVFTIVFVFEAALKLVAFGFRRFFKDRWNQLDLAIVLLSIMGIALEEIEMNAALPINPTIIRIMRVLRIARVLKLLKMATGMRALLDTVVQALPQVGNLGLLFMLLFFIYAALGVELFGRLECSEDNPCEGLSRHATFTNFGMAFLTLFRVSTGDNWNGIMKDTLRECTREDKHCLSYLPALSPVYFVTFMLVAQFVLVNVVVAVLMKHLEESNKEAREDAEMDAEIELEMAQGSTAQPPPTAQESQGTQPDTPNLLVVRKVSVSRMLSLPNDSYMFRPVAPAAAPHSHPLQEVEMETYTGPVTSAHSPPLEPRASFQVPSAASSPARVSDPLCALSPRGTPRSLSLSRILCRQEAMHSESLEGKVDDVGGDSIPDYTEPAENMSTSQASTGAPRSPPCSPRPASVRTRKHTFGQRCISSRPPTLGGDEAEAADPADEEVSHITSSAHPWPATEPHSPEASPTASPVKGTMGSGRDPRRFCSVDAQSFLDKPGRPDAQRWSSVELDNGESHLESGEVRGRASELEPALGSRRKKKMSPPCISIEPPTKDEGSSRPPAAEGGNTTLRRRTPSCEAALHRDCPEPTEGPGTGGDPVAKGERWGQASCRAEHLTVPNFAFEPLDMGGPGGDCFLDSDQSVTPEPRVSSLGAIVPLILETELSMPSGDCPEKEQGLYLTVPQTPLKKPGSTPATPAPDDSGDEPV

[11] = tested on: T-currents in nucleus reticularis thalami (nRT); settings: cited from earlier work
GABAA currents = settings: cited from earlier work
NMDA currents = settings: cited from earlier work
rat pups (PND7) [12] = assay: Loss of righting reflex (LORR) in PND7 rat pups, i.p.
[13] = tested on: activated caspase-3 in developing brain; assay: Activated caspase-3 staining of vulnerable brain regions in PND7 rat pups

C[C@]12CC[C@H](O)C[C@H]1CC[C@@H]1[C@@H]2CC[C@]2(C)[C@@H](C#N)CC[C@@H]12 [3β-OH, (3β,5β,17β)-3-hydroxyandrostane-17-carbonitrile]
ED50 [1]: 16 ± 0.4 mg/kg | duration of LORR ([2]; 75 mg/kg dose): up to 50 min | ED50 ([2]; Mus musculus, ip, adult female C57Bl/6 mice): 46 ± 2 mg/kg | prolongation of PWLs over pre-injection baseline (adult naïve rats; i.t. 0.003 to 16 μg, 60 minutes post-injection): up to 80% | increase of PWLs (adult naïve rats; i.t., higher doses, 150 minutes post-injection): 25-30% | sensorimotor responses after vs before injection (rats [3]): did not differ significantly | increase in PWLs compared to incised paws injected with vehicle ([4]; 16 μg i.pl. repeated at 2 hours, day 1, 2, 3 and 5, day 1 to day 5): 50-90% | thermal PWL of incised paw ([4]; 16 μg i.pl. single injection, day 1 after incision): about 6 seconds | thermal PWL of incised paw vs vehicle ([4]; 16 μg i.pl. single injection, day 2): not significantly different | effect on thermal PWLs vs vehicle in incised paws ([4]; 16 μg i.t. applied 2 hours after incision): little effect | thermal PWL of unincised paws ([4]; 16 μg i.t. at 24 and 48 hours post-surgery): 14 to 15 s | thermal PWL of incised paws ([4]; 16 μg i.t., 48 hours post-surgery, 180 minutes post injection, vehicle about 4): about 9 seconds | thermal PWL of incised paw ([4]; 48 μg i.pl. single injection, day 1 post incision): about 6.5 seconds | thermal PWL of incised paw ([4]; 48 μg i.pl. single injection, day 2 post incision): about 7 seconds | time after surgery for which hyperalgesia is reduced ([4]; data not shown): at least 48 hours | inhibition at 3 µM [5]: 38 ± 4% | cardiac arrhythmias (adult monkeys): did not notice cardiac arrhythmias | LD50 [6]: 61.9 ± 4.6 mg/kg | therapeutic index (rat pups (PND7) [7]): about 22 | days required to reach learning criterion in RAM (rats [8]; 3β-OH at 10 mg/kg, ketamine at 40 mg/kg at PND 7, tested from PND 53): indistinguishable from vehicle animals | rats reaching criterion in the allotted time (rats [8]; p-p plot): 100% | rats that had reached criterion at the same point of training (p-p plot) (rats [8]; rat, in vivo): roughly half | daily weight gain among the groups [9]: no difference | maximal block of T-current ([10]; DRG neurons): 100% | IC50 ([10]; acutely dissociated DRG cells, read-out: IC50, block of T-currents in DRG cells): 3000 nM | IC50 [11]: 2000 nM | effect on GABAA currents (GABAA currents): devoid of any direct effects | effect on postsynaptic NMDA currents (NMDA currents): devoid of any direct effects | calculated EC50 (duration of LORR) (rat pups (PND7) [12]; PND7 rat pups, i.p.): 34.5 ± 3.7 mg/kg | ED50 (rat pups (PND7) [12]; Rattus norvegicus, ip, read-out: calculated ED50 for LORR): 2.9 ± 0.28 mg/kg | equipotent dose comparable to ketamine 40 mg/kg (rat pups (PND7) [12]; i.p., based on LORR): 10 mg/kg | equipotent single dose comparable to ketamine 20 mg/kg (rat pups (PND7) [12]; i.p., based on LORR): 5 mg/kg | apoptotic (caspase-3) activation compared with vehicle ([13]; 5 mg/kg i.p. every hour, six doses, all examined regions except subiculum): did not cause significant apoptotic activation | caspase-3 activation, twice higher dose compared with lower dose ([13]; 10 mg/kg vs 5 mg/kg i.p., 6 doses hourly): small increase | caspase-3 activation at higher dose compared with vehicle ([13]; 3β-OH 10 mg/kg or ketamine 40 mg/kg i.p., 6 doses hourly, 3β-OH: except subiculum): no significant increase
